Earlier results on one substance are cited in patent publication US20090011476A1, “GENE CLUSTER AND METHOD FOR THE BIOSYNTHESIS OF TERREQUINONE A” (Wisconsin Alumni Research Foundation, priority 2005, published 2009).

The data set relates to tumor cell lines. Conditions: literature statement, values not given.

Consider terrequinone A, for which the “inhibitory properties on tumor cell lines” value is on record as “inhibitory properties”.
